US4110327A, “2,3 Diketo-piperazinocarbonylamino alkanoic acids and derivatives” (Toyama Chemical Co., Ltd., priority 1974, dated 1978)
In brackets after ≈: the same amount, converted by molar mass.

Legend:
Escherichia coli = test: MIC against clinical isolates; type: cell-based; conditions: unit assumed
Proteus morganii = test: MIC against clinical isolates; type: cell-based; conditions: clinical isolate, unit assumed
[1] = tested on: Pseudomonas aeruginosa I.F.O.; test: MIC against standard strain, plate method; type: cell-based; conditions: unit assumed
Procedure, shortened: (§1)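 Plate-method MIC. Medium: heart infusion agar, pH 7.4. Inoculum: 10^4 cells per plate (10^6 cells/ml).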

[2] = tested on: Staphylococcus aureus 209p; test: MIC against standard strain, plate method; type: cell-based; conditions: unit assumed
Procedure, shortened: as §1

Proteus vulgaris 3027 = test: MIC against standard strain, plate method; type: cell-based; conditions: Proteus vulgaris 3027, standard strain; unit assumed
Procedure, shortened: as §1

Escherichia coli NIHJ = test: MIC against standard strain, plate method; type: cell-based; conditions: unit assumed
Procedure, shortened: as §1

Shigella flexneri = test: MIC against clinical isolates; type: cell-based; conditions: unit assumed
Method: (§2) The minimum inhibitory concentrations (MIC) was determined by the plate method disclosed in "Chemotherapy" (Japan), Vol. 16, (1968), pages 98 - 99. The culture medium used was a Heart infusion agar (pH 7.4). The number of the cells per plate used in the inoculum as 10^4 (10^6 cells/ml).
(§3) MIC was determined in the same manner as in the preceding paragraph (1).

Shigella sonnei = test: MIC against clinical isolates; type: cell-based; conditions: clinical isolate JS 11232; unit assumed
Method: as §2, §3

Klebsiella pneumoniae [3] = test: MIC against clinical isolates; type: cell-based; conditions: unit assumed
Salmonella typhi = test: MIC against clinical isolates; type: cell-based; conditions: unit assumed
Pseudomonas aeruginosa = test: MIC against clinical isolates; type: cell-based; conditions: unit assumed
Proteus mirabilis = test: MIC against clinical isolates; type: cell-based; conditions: clinical isolate, unit assumed
Salmonella typhi-murium = test: MIC against clinical isolates; type: cell-based; conditions: unit assumed
Staphylococcus aureus = test: MIC against clinical isolates; type: cell-based; conditions: unit assumed
Proteus vulgaris = test: MIC against clinical isolates; type: cell-based; conditions: clinical isolate, unit assumed
Proteus rettgeri = test: MIC against clinical isolates; type: cell-based; conditions: clinical isolate, unit assumed
β-lactamase = test: Resistant activity against β-lactamase, iodometric assay; type: biochemical, Pseudomonas aeruginosa GN 238; conditions: relative to Potassium Penicillin G = 100
Method: (3) Resistant activity against β-lactamase, Pseudomonas aergionan GN 238:
The resistant activity of each compound against β-lactamase was measured in the manner described below.
β-Lactamase was prepared from Pseudomonas aeruginosa GN 238. This microorganism was cultured in 100 ml of a medium containing 2 g of yeast extract, 10 g of polypeptone, 2 g of glucose, 7 g of disodium hydrogen phosphate, 2 g of potassium dihydrogen phosphate, 1.2 g of ammonium sulfate and 0.4 g of magnesium sulfate, per liter, in a 500-ml Erlenmeyer flask for 6 hrs. at 37° C with shaking. The resulting cells were collected by centrifugation (5,000 r.p.m. × 10 min.), washed three times with 0.1 M phosphate buffer (pH 7.0). Subsequently, the cells were subjected to sonication (20 KHz, 20 min.) and then centrifuged at 15,000 r.p.m. for 60 min. By using the supernatant of enzyme fluid, the resistance of each compound against β-lactamase was determined by the iodometric assay method. Each numeral shown in Table 7 is a relative activity value calculated by assuming as 100 the activity of the control Potassium Penicillin G.

Klebsiella pneumoniae [4] = test: MIC against standard strain, plate method; type: cell-based; conditions: unit assumed
Procedure, shortened: as §1

[5] = clinical isolate GN (number not given; Table 5-3)

Row | Structure (SMILES) | MIC (Escherichia coli; clinical isolate GN 3465) [µg/mL] | MIC (Escherichia coli; clinical isolate K-3) [µg/mL] | MIC (Proteus morganii) [µg/mL] | MIC [1] [µg/mL] | MIC [2] [µg/mL] | MIC (Proteus vulgaris 3027) [µg/mL] | MIC (Klebsiella pneumoniae [3]; clinical isolate GN 917) [µg/mL] | MIC (Klebsiella pneumoniae [3]; clinical isolate GN 4081) [µg/mL] | MIC (Klebsiella pneumoniae [3]; clinical isolate GN 4117) [µg/mL] | MIC (Pseudomonas aeruginosa; clinical isolate GN 82) [µg/mL] | MIC (Pseudomonas aeruginosa; clinical isolate GN 163) [µg/mL] | MIC (Pseudomonas aeruginosa; clinical isolate GN 221) [µg/mL] | MIC (Pseudomonas aeruginosa; clinical isolate GN 376) [µg/mL] | MIC (Pseudomonas aeruginosa; clinical isolate GN 383) [µg/mL] | MIC (Pseudomonas aeruginosa; clinical isolate GN 1035) [µg/mL] | MIC (Pseudomonas aeruginosa; clinical isolate GN 1091) [µg/mL] | MIC (Pseudomonas aeruginosa; clinical isolate GN 2565) [µg/mL] | MIC (Pseudomonas aeruginosa; [5]) [µg/mL] | MIC (Pseudomonas aeruginosa; clinical isolate S-1) [µg/mL] | MIC (Pseudomonas aeruginosa; clinical isolate S-2) [µg/mL] | also measured
1 | CCCCCCCCN1CCN(C(=O)N[C@@H](C(=O)N[C@@H]2C(=O)N3[C@@H]2SC(C)(C)[C@@H]3C(=O)O)c2ccccc2)C(=O)C1 [compound 16] | 12.5 (≈ 21.3 µM) | 50 (≈ 85.1 µM) | 1.56 (≈ 2.65 µM) | 12.5 (≈ 21.3 µM) | < 1.57 | < 1.57 | 12.5 (≈ 21.3 µM) | 25 (≈ 42.5 µM) | 25 (≈ 42.5 µM) | 6.25 (≈ 10.6 µM) | 12.5 (≈ 21.3 µM) | 25 (≈ 42.5 µM) | 25 (≈ 42.5 µM) | 25 (≈ 42.5 µM) | 25 (≈ 42.5 µM) | 12.5 (≈ 21.3 µM) | 12.5 (≈ 21.3 µM) | 12.5 (≈ 21.3 µM) | 12.5 (≈ 21.3 µM) | 25 (≈ 42.5 µM) | MIC (Escherichia coli NIHJ): < 1.57 µg/mL; MIC (Shigella flexneri; clinical isolate JS 11215): 6.25 µg/mL (≈ 10.6 µM); MIC (Shigella flexneri; clinical isolate JS 11839): 0.79 µg/mL (≈ 1.34 µM); MIC (Shigella sonnei): 6.25 µg/mL (≈ 10.6 µM); MIC (Salmonella typhi; clinical isolate SL 819): 3.13 µg/mL (≈ 5.33 µM); MIC (Salmonella typhi; clinical isolate SL 2169): 1.57 µg/mL (≈ 2.67 µM); MIC (Pseudomonas aeruginosa; clinical isolate S-3): 50 µg/mL (≈ 85.1 µM); MIC (Pseudomonas aeruginosa; clinical isolate S-4): 25 µg/mL (≈ 42.5 µM); MIC (Proteus mirabilis): 1.56 µg/mL (≈ 2.65 µM); MIC (Salmonella typhi-murium; clinical isolate SL 858): 1.57 µg/mL (≈ 2.67 µM); MIC (Salmonella typhi-murium; clinical isolate SL 2136): 100 µg/mL (≈ 170 µM); MIC (Staphylococcus aureus; clinical isolate F-1): 6.25 µg/mL (≈ 10.6 µM); MIC (Staphylococcus aureus; clinical isolate F-2): 0.79 µg/mL (≈ 1.34 µM); MIC (Staphylococcus aureus; clinical isolate F-4): 6.25 µg/mL (≈ 10.6 µM); MIC (Staphylococcus aureus; clinical isolate F-5): 100 µg/mL (≈ 170 µM); MIC (Staphylococcus aureus; clinical isolate MS 8619): < 0.4 µg/mL; MIC (Proteus vulgaris): 0.8 µg/mL (≈ 1.36 µM); MIC (Proteus rettgeri): 6.25 µg/mL (≈ 10.6 µM)
2 | CC1(C)S[C@@H]2[C@H](NC(=O)Cc3ccccc3)C(=O)N2[C@H]1C(=O)O [Potassium Penicillin G, reference compound] |  |  |  |  |  |  |  |  |  |  |  |  |  |  |  |  |  |  |  |  | Relative activity (β-lactamase): 100%
3 | CC1(C)S[C@@H]2[C@H](NC(=O)C(c3ccccc3)S(=O)(=O)O)C(=O)N2[C@H]1C(=O)O (stereo partly shown) [Sodium Sulbenicillin, SodiumSulbenicillin, reference compound] | > 200 | > 200 | < 0.4 | 50 | 3.13 | 0.79 | > 200 | > 200 | > 200 | 50 | 50 | 25 | 50 | 50 | 100 | 50 | 100 | 50 | 100 | 100 | MIC (Escherichia coli; clinical isolate GN 3452): 12.5 µg/mL; MIC (Escherichia coli; clinical isolate GN 3481): 12.5 µg/mL; MIC (Escherichia coli; clinical isolate GN 3611): > 200 µg/mL; MIC (Escherichia coli; clinical isolate K-2): 12.5 µg/mL; MIC (Klebsiella pneumoniae [4]): > 200 µg/mL; MIC (Klebsiella pneumoniae [3]; clinical isolate GN 3850): > 200 µg/mL; MIC (Pseudomonas aeruginosa; clinical isolate GN 2987): 25 µg/mL; MIC (Pseudomonas aeruginosa; clinical isolate S-3): 100 µg/mL; MIC (Pseudomonas aeruginosa; clinical isolate S-4): 100 µg/mL; MIC (Proteus mirabilis): 0.79 µg/mL; MIC (Staphylococcus aureus; clinical isolate F-2): 3.13 µg/mL; MIC (Staphylococcus aureus; clinical isolate F-5): > 200 µg/mL; MIC (Staphylococcus aureus; clinical isolate MS 8588): 3.13 µg/mL; MIC (Staphylococcus aureus; clinical isolate MS 8596): 3.13 µg/mL; MIC (Staphylococcus aureus; clinical isolate MS 8619): 3.13 µg/mL; MIC (Staphylococcus aureus; clinical isolate MS 8684): 3.13 µg/mL; MIC (Staphylococcus aureus; clinical isolate MS 8713): 3.13 µg/mL; MIC (Proteus vulgaris): < 0.4 µg/mL; MIC (Proteus rettgeri): > 200 µg/mL; Relative activity (β-lactamase): 50%
